Consider one compound from PMC13538172, “Zonisamide nanodiamonds for brain targeting: A comprehensive study utilising in silico, in vitro, in vivo, and molecular investigation for successful nose-to-brain delivery for epilepsy management” (Drug Delivery and Translational Research, 2025).

The series in a line: Brain uptake, biodistribution and pharmacokinetics of 99mTc-radiolabelled ZNS in mice. In kind it is in vivo, male Swiss albino mice. As to conditions: for Cmax (%ID/g), blood / Cmax (%ID/g), brain: n = 6. The protocol: Then, 100 μL of freshly eluted ^99mTc-pertechnetate; 99mTcO4- (200 MBq) was added to the above mixture, and the reaction mixture was vigorously shaken for 15 minutes. Radiochromatographic analysis was developed using the ascending paper chromatography (PC) technique to monitor the radiochemical purity of the ^99mTc-labelled compound using two distinct mobile phases; acetone was used to detect free pertechnetate, which migrated to Rf = 1, while the other component remained at Rf = 0 and a second mobile phase, comprising NH4OH, C2H5OH, and H2O (1:2:5), was used to determine the reduced hydrolyzed (R-H) 99mTc-colloid, which remained at Rf = 0, whereas ^99mTc-labelled compound and free pertechnetate migrated to Rf = 1 [7, 47]. Two drops of the reaction product and free 99mTcO4 were placed on two strips of Whatman PC on the origin line, 2 cm far from the base, to be developed by developing solvents. The experiments were conducted in triplicate to ensure the reproducibility and reliability of the results. As the developing process was terminated, the strip was dried, trimmed into 1 cm size pieces, and counted using the sodium iodide (NaI) γ-ray scintillation counter (A good-type NaI scintillation γ-Counter model scalar rate meter SR7 (Nuclear Enterprises Ltd., USA). The radiochemical yield percent of ^99mTc–ZNS was calculated using Eq. (3)3 %Radiochemicalyield=100-%Free99mTc-%colloid99mTc
The experiment protocol was approved by the University of October for Modern Sciences and Arts (MSA) ethical committee (Pt2/Ec2/2022PD), where the principles of the Declaration of Helsinki were followed. The mice were maintained in cabins of a size that suits groups of five at room temperature with a 12 h light/dark cycle and accessibility to food and water ad libitum. The mice were divided into four groups. Mice in group 1 served as a control and received no treatments. Mice in group 2 were given ZNS orally using an oral gavage (100 μL). Mice in group 3 were injected intranasally with ^99mTc–ND-ZNS complex in each nostril (100 μL) with the help of a micropipette attached with a low-density polyethene tube having 0.1 mm internal diameter at the delivery site. Mice in group 4 were injected intranasally free ^99mTc–-ZNS similarly. The mice were held from the back in a slanted position during nasal administration of the formulations. Next, mice were anesthetized by chloroform at 5, 15, 30, 60, 120 min post-injection (n=6 mice/time point). Samples of fresh blood and different organs were collected, washed twice using saline solution, made free from adhering tissue/fluid, and weighed. The radioactivity in each tissue/organ was measured using a shielded well-type gamma scintillation counter. The radiopharmaceutical uptake per gram in each tissue/organ was calculated as a fraction of the administered dose. Percent injected dose per gram organ and body fluid (mean %ID per gram organ and body fluid ± SD) in a population of six mice were calculated, and the significance level was set at […].
Drug concentrations in plasma and brain were investigated based on the measured radioactivity as previously discussed. Blood samples were collected at 5, 15, 30, 60, and 120 min post-injection (n=6 mice/time interval). Plasma and brain pharmacokinetic parameters were calculated by non-compartmental analysis using the Microsoft Excel Pharmacokinetics add-on. The rate of drug absorption was estimated through maximum plasma/brain concentration (Cmax), time for maximum plasma/brain concentration (Tmax), the extent of drug absorption via the area under the curve from zero to time (AUC0-t), and the area under the curve from zero to infinity (AUC 0-∞). The data in the form of mean values (± SD) of three determinations were statistically analyzed by applying one-way ANOVA using Minitab 17 software. Data was expressed as mean±S.D and analyzed by ANOVA followed by Tukey's test for multiple comparisons. Differences were considered significant when p was less than 0.05. […]

Values joined by “and” are separate entries in the source; they are usually repeats but may differ in a detail not shown here. Equal entries are not always repeated.

As to `NS(=O)(=O)Cc1noc2ccccc12` [ZNS, Zonisamide], the “tissue distribution of ZNS (brain, liver, kidney, stomach, lungs)” value (5-120 min, Fig. 6, result in words) is recorded as “minimal distribution in the brain”. Moreover, for the setting “intranasal”, the “Brain/Blood Ratio (AUC Brain/AUC Blood)” value was 0.24; the “LogBB at 15 min” value is on record as −0.55±0.06; the “LogBB at 120 min” value is −0.477; the “AUC(0-120min), blood” value is listed as 125.25 ± 21.3 %ID/g.min. Also, for the setting “intranasal”, the “Tmax (min), blood” value is 15 min; the “Cmax (%ID/g), blood” value amounted to 1.8 ± 0.7 %ID/g; the “AUC(0-120min), brain” value stood at 31 ± 9.6 %ID/g.min; the “Tmax (min), brain” value is on record as 15 min. Further, the “Cmax (%ID/g), brain” value (intranasal) is on record as 0.5 ± 0.2 %ID/g. The “LogBB at 15 min” value (intranasal, listed as free ZNS) is on record as −0.556. In addition, for the setting “oral”, the “LogBB at 15 min” value was −0.865; the “LogBB at 120 min” value was −1.301; the “AUC(0-120min), blood” value turned out to be 77.6 ± 15.3 %ID/g.min; the “Tmax (min), blood” value was determined as 30 min. Further, for the setting “oral”, the “Cmax (%ID/g), blood” value worked out at 1.4 ± 0.07 %ID/g; the “AUC(0-120min), brain” value was 7.1 ± 3.1 %ID/g.min; the “Tmax (min), brain” value is reported as 15 min; the “Cmax (%ID/g), brain” value came to 0.2 ± 0.02 %ID/g. For the same compound, for the setting “oral, listed as free ZNS”, the “Brain/Blood Ratio (AUC Brain/AUC Blood)” value was 0.09 and 0.091.
